Legend:
Assay in all cases: biochemical
[1] = molecular target: T1, MAP3K7/MAP3K7IP1 (TAK1-TAB1) (Homo sapiens, UniProt O43318); set-up: SelectScreen LanthaScreen kinase binding assay, per cent tracer displacement, mean of two points; conditions: tracer displacement
T1 construct: TAK1-TAB1
T1 sequence (O43318 1-606): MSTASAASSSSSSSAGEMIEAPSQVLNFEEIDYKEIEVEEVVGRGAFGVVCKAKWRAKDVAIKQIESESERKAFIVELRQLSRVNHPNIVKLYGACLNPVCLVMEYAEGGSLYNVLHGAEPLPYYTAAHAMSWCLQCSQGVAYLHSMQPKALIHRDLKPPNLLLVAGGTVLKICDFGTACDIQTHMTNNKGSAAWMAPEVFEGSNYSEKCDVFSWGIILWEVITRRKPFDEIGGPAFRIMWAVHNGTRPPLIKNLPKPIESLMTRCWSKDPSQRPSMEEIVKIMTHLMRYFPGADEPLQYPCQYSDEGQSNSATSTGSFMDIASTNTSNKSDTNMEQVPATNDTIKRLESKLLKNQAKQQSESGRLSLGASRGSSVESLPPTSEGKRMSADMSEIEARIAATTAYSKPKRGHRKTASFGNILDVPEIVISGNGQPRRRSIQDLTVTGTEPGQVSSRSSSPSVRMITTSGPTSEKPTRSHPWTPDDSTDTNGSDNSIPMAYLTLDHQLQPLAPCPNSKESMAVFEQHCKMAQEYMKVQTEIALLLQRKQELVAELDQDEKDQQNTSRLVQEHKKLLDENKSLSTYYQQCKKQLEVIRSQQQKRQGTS
T1 sequence (Q15750 1-504 partner): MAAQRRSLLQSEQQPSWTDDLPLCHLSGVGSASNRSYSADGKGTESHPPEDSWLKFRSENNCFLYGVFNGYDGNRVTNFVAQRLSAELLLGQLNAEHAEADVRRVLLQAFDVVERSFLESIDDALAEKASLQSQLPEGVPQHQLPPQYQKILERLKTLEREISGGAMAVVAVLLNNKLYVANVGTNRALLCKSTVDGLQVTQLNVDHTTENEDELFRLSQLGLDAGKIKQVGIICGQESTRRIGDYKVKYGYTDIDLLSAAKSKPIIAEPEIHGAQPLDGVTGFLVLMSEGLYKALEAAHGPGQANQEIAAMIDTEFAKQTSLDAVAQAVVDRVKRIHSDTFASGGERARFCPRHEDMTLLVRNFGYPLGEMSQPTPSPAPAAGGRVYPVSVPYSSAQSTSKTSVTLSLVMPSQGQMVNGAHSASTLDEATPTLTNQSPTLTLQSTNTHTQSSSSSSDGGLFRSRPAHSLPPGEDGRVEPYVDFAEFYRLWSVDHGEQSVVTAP

EPHA2 = EPHA2 (Homo sapiens, UniProt P29317); set-up: SelectScreen Z'-LYTE purified kinase panel, per cent inhibition, mean of two points; conditions: (μM)=Km app
PAK4 = PAK4 (Homo sapiens, UniProt O96013); set-up: SelectScreen Z'-LYTE purified kinase panel, per cent inhibition, mean of two points; conditions: (μM)=Km app
MAPK14 (p38 alpha) = MAPK14 (p38 alpha) (Homo sapiens, UniProt Q16539); set-up: SelectScreen Z'-LYTE purified kinase panel, per cent inhibition, mean of two points; conditions: (μM)=100
CSF1R (FMS) = CSF1R (FMS) (Homo sapiens, UniProt P07333); set-up: SelectScreen Z'-LYTE purified kinase panel, per cent inhibition, mean of two points; conditions: (μM)=Km app
PKN1 (PRK1) = PKN1 (PRK1) (Homo sapiens, UniProt Q16512); set-up: SelectScreen Z'-LYTE purified kinase panel, per cent inhibition, mean of two points; conditions: (μM)=Km app
AURKB (Aurora B) = AURKB (Aurora B) (Homo sapiens, UniProt Q96GD4); set-up: SelectScreen Z'-LYTE purified kinase panel, per cent inhibition, mean of two points; conditions: (μM)=Km app
PDGFRA (PDGFR alpha) = PDGFRA (PDGFR alpha) (Homo sapiens, UniProt P16234); set-up: SelectScreen Z'-LYTE purified kinase panel, per cent inhibition, mean of two points; conditions: (μM)=Km app
PTK2 (FAK) = PTK2 (FAK) (Homo sapiens, UniProt Q05397); set-up: SelectScreen Z'-LYTE purified kinase panel, per cent inhibition, mean of two points; conditions: (μM)=Km app
KDR (VEGFR2) = KDR (VEGFR2) (Homo sapiens, UniProt P35968); set-up: SelectScreen Z'-LYTE purified kinase panel, per cent inhibition, mean of two points; conditions: (μM)=Km app
PIM1 = PIM1 (Homo sapiens, UniProt P11309); set-up: SelectScreen Z'-LYTE purified kinase panel, per cent inhibition, mean of two points; conditions: (μM)=Km app
PRKACA (PKA) = PRKACA (PKA) (Homo sapiens, UniProt P17612); set-up: SelectScreen Z'-LYTE purified kinase panel, per cent inhibition, mean of two points; conditions: (μM)=Km app
PLK1 = PLK1 (Homo sapiens, UniProt P53350); set-up: SelectScreen Z'-LYTE purified kinase panel, per cent inhibition, mean of two points; conditions: (μM)=Km app
PRKCA (PKC alpha) = PRKCA (PKC alpha) (Homo sapiens, UniProt P17252); set-up: SelectScreen Z'-LYTE purified kinase panel, per cent inhibition, mean of two points; conditions: (μM)=Km app

KDR (VEGFR2), sequence (P35968 whole entry): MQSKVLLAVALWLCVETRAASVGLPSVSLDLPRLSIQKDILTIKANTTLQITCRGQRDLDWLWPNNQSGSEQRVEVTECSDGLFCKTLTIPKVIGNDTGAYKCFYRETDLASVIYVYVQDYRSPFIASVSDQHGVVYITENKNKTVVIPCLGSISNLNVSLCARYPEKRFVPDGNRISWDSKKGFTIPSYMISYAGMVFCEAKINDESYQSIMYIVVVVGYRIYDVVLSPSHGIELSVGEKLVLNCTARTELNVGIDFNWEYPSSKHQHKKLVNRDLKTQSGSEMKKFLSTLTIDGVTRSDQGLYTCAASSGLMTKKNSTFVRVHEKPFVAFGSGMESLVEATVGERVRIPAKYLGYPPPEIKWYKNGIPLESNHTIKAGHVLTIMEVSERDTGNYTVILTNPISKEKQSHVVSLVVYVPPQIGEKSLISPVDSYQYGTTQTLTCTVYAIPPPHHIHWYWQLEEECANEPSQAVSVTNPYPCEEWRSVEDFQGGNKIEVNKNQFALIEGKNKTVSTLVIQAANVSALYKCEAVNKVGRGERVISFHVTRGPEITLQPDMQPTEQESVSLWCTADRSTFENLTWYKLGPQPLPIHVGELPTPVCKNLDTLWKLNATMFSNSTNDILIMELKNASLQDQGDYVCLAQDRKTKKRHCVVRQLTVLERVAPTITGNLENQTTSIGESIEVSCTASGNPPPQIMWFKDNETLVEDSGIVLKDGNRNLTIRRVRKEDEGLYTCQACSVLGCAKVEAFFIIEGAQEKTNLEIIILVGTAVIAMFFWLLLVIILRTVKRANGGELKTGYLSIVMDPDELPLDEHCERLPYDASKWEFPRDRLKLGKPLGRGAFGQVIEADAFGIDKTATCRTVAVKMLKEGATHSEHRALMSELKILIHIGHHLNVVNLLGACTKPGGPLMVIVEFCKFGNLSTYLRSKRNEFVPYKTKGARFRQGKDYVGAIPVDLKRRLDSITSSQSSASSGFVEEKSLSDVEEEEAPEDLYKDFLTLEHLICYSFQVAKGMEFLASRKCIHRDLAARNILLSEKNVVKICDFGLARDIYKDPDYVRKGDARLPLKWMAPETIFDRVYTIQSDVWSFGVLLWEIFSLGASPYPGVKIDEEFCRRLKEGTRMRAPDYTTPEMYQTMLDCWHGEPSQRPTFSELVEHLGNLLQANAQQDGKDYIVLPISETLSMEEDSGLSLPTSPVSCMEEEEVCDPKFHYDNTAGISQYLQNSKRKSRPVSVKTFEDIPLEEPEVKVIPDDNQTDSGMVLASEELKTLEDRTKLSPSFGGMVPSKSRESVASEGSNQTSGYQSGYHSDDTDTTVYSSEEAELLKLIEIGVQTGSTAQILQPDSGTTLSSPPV
AURKB (Aurora B), sequence (Q96GD4 whole entry): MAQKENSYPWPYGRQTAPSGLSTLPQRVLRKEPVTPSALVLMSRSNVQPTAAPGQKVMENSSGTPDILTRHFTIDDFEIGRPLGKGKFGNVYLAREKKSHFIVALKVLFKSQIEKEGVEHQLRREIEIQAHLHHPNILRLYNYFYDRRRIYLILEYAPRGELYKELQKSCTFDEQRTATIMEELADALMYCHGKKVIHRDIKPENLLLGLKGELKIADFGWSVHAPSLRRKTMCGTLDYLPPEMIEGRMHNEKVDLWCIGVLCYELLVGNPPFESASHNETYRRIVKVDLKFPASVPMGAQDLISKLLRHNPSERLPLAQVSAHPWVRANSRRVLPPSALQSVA
PLK1, sequence (P53350 whole entry): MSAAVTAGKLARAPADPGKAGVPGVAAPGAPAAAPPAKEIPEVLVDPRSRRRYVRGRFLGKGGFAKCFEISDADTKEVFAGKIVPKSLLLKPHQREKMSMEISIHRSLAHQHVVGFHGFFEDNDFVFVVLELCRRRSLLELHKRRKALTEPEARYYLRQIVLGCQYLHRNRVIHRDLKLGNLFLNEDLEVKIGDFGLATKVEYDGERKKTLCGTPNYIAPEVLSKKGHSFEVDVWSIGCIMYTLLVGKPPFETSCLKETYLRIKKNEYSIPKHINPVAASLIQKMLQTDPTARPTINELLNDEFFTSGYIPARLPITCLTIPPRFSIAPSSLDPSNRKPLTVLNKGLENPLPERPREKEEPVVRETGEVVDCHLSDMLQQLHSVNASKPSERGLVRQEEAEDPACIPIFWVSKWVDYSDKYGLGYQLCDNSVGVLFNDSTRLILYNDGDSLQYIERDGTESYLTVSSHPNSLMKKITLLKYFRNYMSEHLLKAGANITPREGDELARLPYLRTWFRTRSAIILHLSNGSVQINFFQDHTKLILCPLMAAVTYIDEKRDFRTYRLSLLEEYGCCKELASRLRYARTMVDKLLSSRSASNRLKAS
PAK4, sequence (O96013 whole entry): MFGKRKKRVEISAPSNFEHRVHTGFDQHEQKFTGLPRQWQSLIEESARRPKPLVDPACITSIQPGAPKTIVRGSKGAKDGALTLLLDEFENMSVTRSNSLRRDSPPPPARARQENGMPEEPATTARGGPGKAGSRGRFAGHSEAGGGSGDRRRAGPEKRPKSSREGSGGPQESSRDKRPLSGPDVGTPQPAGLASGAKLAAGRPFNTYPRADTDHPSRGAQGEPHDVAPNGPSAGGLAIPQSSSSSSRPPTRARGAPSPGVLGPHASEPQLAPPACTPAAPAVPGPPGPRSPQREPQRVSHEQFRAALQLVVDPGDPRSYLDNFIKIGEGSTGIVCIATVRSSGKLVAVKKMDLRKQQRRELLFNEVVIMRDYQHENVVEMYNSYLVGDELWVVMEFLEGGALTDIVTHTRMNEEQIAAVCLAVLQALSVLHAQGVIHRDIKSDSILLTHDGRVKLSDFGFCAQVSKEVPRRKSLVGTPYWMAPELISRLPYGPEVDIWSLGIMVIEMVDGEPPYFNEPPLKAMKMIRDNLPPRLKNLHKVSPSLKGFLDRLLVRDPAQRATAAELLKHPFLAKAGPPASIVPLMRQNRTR
PIM1, sequence (P11309 whole entry): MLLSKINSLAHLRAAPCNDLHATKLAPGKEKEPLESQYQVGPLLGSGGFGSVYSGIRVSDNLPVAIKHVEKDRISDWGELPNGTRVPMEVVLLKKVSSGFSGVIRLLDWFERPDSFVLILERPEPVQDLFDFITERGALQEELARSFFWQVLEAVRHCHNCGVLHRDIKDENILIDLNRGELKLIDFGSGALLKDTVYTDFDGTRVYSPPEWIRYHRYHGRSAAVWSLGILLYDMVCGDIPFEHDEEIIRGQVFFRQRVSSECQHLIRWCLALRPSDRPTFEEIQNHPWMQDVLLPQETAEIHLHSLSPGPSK
CSF1R (FMS), sequence (P07333 whole entry): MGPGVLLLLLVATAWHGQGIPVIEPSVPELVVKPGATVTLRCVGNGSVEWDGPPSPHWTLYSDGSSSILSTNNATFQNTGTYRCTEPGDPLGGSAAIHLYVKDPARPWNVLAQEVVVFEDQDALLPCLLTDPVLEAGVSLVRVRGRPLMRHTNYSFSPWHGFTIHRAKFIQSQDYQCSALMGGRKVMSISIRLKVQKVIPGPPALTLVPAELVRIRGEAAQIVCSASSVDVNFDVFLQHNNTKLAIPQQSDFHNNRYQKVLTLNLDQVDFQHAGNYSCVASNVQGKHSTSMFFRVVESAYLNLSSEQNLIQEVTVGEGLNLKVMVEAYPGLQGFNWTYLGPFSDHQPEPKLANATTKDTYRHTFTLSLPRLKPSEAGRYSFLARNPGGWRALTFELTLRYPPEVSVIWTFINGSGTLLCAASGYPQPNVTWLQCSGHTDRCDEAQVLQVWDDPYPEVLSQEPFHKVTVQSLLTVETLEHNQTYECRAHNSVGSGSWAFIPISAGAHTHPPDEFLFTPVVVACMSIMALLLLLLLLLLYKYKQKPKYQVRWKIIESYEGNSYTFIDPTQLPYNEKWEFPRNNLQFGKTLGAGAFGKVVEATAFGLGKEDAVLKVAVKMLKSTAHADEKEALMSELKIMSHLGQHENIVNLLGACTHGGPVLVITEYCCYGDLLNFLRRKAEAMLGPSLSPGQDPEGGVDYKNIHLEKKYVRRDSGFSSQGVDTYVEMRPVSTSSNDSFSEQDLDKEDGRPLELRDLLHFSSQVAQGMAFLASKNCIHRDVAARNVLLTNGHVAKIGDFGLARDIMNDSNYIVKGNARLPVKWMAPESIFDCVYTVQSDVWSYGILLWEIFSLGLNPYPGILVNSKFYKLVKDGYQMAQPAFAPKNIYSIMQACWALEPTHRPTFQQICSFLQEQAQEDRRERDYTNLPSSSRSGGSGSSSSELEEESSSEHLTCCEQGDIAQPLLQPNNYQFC

O=C(CSc1nc2nccnc2c(=O)n1CCc1ccccc1)Nc1nccs1 [compound 1, PITCOIN1]
inhibition at 1 µM [1]: -3.93%
inhibition at 3 µM [1]: -9.87%
inhibition at 10 µM [1]: -11.5%
inhibition at 1 µM (EPHA2): 6.54%
inhibition at 3 µM (EPHA2): 8.4%
inhibition at 10 µM (EPHA2): 9.38%
inhibition at 1 µM (PAK4): 9.59%
inhibition at 3 µM (PAK4): 9%
inhibition at 10 µM (PAK4): 4.11%
inhibition at 1 µM (MAPK14 (p38 alpha)): -3.25%
inhibition at 3 µM (MAPK14 (p38 alpha)): -1.99%
inhibition at 10 µM (MAPK14 (p38 alpha)): -0.632%
inhibition at 1 µM (CSF1R (FMS)): 12.1%
inhibition at 3 µM (CSF1R (FMS)): 7.54%
inhibition at 10 µM (CSF1R (FMS)): 7.66%
inhibition at 1 µM (PKN1 (PRK1)): 8.46%
inhibition at 3 µM (PKN1 (PRK1)): 1.84%
inhibition at 10 µM (PKN1 (PRK1)): -4.65%
inhibition at 1 µM (AURKB (Aurora B)): -15.7%
inhibition at 3 µM (AURKB (Aurora B)): -5.68%
inhibition at 10 µM (AURKB (Aurora B)): -10.8%
inhibition at 1 µM (PDGFRA (PDGFR alpha)): 8.94%
inhibition at 3 µM (PDGFRA (PDGFR alpha)): 1.9%
inhibition at 10 µM (PDGFRA (PDGFR alpha)): 4.84%
inhibition at 1 µM (PTK2 (FAK)): 4.94%
inhibition at 3 µM (PTK2 (FAK)): 3.7%
inhibition at 10 µM (PTK2 (FAK)): 2.3%
inhibition at 1 µM (KDR (VEGFR2)): 8.19%
inhibition at 3 µM (KDR (VEGFR2)): 4.57%
inhibition at 10 µM (KDR (VEGFR2)): -0.425%
inhibition at 1 µM (PIM1): 8.8%
inhibition at 3 µM (PIM1): 5.6%
inhibition at 10 µM (PIM1): -0.465%
inhibition at 1 µM (PRKACA (PKA)): 9.73%
inhibition at 3 µM (PRKACA (PKA)): 5.23%
inhibition at 10 µM (PRKACA (PKA)): 4.58%
inhibition at 1 µM (PLK1): 8.77%
inhibition at 3 µM (PLK1): 11%
inhibition at 10 µM (PLK1): 10.9%
inhibition at 1 µM (PRKCA (PKC alpha)): 6.59%
inhibition at 3 µM (PRKCA (PKC alpha)): 10%
inhibition at 10 µM (PRKCA (PKC alpha)): 0.714%

CS(=O)(=O)Nc1cccc(-c2csc(NC(=O)CSc3nc4nccnc4c(=O)n3CCc3ccccc3)n2)c1 [compound 3, PITCOIN3]
inhibition at 1 µM [1]: -2.55%
inhibition at 3 µM [1]: -10.1%
inhibition at 10 µM [1]: -10.1%
inhibition at 1 µM (EPHA2): 13.8%
inhibition at 3 µM (EPHA2): 8.03%
inhibition at 10 µM (EPHA2): 8.38%
inhibition at 1 µM (PAK4): 4.8%
inhibition at 3 µM (PAK4): 3.9%
inhibition at 10 µM (PAK4): 2.41%
inhibition at 1 µM (MAPK14 (p38 alpha)): 1.55%
inhibition at 3 µM (MAPK14 (p38 alpha)): 6.76%
inhibition at 10 µM (MAPK14 (p38 alpha)): 2.67%
inhibition at 1 µM (CSF1R (FMS)): 10.1%
inhibition at 3 µM (CSF1R (FMS)): 14%
inhibition at 10 µM (CSF1R (FMS)): 13.3%
inhibition at 1 µM (PKN1 (PRK1)): 2.88%
inhibition at 3 µM (PKN1 (PRK1)): -5.53%
inhibition at 10 µM (PKN1 (PRK1)): 4.05%
inhibition at 1 µM (AURKB (Aurora B)): -3.65%
inhibition at 3 µM (AURKB (Aurora B)): 2.11%
inhibition at 10 µM (AURKB (Aurora B)): 6.27%
inhibition at 1 µM (PDGFRA (PDGFR alpha)): 1.77%
inhibition at 3 µM (PDGFRA (PDGFR alpha)): 20.1%
inhibition at 10 µM (PDGFRA (PDGFR alpha)): 16.3%
inhibition at 1 µM (PTK2 (FAK)): 9.45%
inhibition at 3 µM (PTK2 (FAK)): 8.02%
inhibition at 10 µM (PTK2 (FAK)): 6.38%
inhibition at 1 µM (KDR (VEGFR2)): 0.654%
inhibition at 3 µM (KDR (VEGFR2)): 10.7%
inhibition at 10 µM (KDR (VEGFR2)): 9.78%
inhibition at 1 µM (PIM1): -8.14%
inhibition at 3 µM (PIM1): 9.01%
inhibition at 10 µM (PIM1): 5.45%
inhibition at 1 µM (PRKACA (PKA)): 9.77%
inhibition at 3 µM (PRKACA (PKA)): 8.29%
inhibition at 10 µM (PRKACA (PKA)): 5.74%
inhibition at 1 µM (PLK1): 9.36%
inhibition at 3 µM (PLK1): 10%
inhibition at 10 µM (PLK1): 7.66%
inhibition at 1 µM (PRKCA (PKC alpha)): 0.445%
inhibition at 3 µM (PRKCA (PKC alpha)): 18.8%
inhibition at 10 µM (PRKCA (PKC alpha)): 15.2%
